Assay results: patent US20240150313A1, “TRI-SUBSTITUTED INDOLE BINDING FUNCTION 3 (BF3) COMPOUNDS AND METHODS FOR THEIR USE” (The University of British Columbia, priority 2021, published 2024)
Entries after “also recorded” stand apart in the source; their conditions may differ. Blank lines part the entries; values can stand above or below the compound they belong to.

Experiments:
[1] = system: AR-mediated PSA expression in LNCaP cells; assay: Prostate-Specific Antigen (PSA) assay; format: cell-based, human; conditions: Table 6
Description: Prostate-Specific Antigen (PSA) Assay: The evaluation of PSA levels secreted into the media was performed in parallel to the eGFP assay using the same plates.

[2] = biological target: T1, androgen receptor (AR) transcriptional activity (Homo sapiens, UniProt P10275, T878A); assay: eGFP cellular AR transcription assay; conditions: for AR inhibition activity: eGFP assay; for IC50-eGFP: Table 4, substitution on quinoline moiety of VPC-13566
T1 sequence (P10275 1-920 T878A): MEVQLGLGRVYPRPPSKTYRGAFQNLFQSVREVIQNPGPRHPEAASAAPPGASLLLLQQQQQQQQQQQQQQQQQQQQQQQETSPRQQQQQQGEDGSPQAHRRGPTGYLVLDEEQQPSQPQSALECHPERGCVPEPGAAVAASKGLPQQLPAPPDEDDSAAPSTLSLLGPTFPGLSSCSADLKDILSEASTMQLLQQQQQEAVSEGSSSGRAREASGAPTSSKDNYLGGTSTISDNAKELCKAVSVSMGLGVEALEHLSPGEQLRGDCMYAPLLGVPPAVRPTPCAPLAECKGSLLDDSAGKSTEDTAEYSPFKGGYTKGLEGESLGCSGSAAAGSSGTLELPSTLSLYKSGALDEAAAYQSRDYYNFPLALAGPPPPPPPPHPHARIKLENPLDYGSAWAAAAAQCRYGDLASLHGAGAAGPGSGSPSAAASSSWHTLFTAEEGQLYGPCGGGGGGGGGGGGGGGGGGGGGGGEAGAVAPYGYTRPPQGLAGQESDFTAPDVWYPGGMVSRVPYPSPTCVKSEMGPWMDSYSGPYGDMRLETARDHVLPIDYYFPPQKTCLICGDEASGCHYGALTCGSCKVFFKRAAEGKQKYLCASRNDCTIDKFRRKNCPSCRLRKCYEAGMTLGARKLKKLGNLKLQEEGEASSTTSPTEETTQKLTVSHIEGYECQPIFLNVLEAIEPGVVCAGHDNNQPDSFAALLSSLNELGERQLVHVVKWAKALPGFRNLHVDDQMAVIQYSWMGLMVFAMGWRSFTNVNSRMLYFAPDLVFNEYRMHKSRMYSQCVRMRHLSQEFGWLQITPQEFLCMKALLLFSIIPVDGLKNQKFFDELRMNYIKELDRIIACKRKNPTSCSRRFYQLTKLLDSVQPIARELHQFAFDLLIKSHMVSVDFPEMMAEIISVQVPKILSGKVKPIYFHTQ

[3] = Microsomal stability (half-life); format: in vitro ADME, human; conditions: for half-life: Table 6
[4] = system: PC3 (AR negative) cells; assay: Cell viability / proliferation assay (Prestoblue), PC3; format: cell-based, human
Description: (§1) After 3 days of treatment, cell density was measured using the Prestoblue™ assay (Thermo Fisher Scientific™).

[5] = system: androgen-mediated transcription in LNCaP cells; assay: RNA-seq / GSEA on LNCaP cells; format: cell-based, human; conditions: for GSEA normalized enrichment score (canonical AR genes): 10 nM DHT; for differentially expressed genes / downregulated genes / upregulated genes: compared to vehicle; for p53 pathway: with androgen
[6] = system: AR protein-protein interactions on chromatin; assay: RIME of the AR interactome; conditions: DHT treated cells
[7] = system: nuclear accumulation of exogenous (293T) or endogenous (LNCaP) AR; assay: AR nuclear translocation; format: cell-based; conditions: 293T (exogenous) or LNCaP (endogenous), DHT
Text: B) Heatmap of genes from the GSEA-MySigDB “Hallmark androgen response”. […] D) Nuclear translocation of exogenous (AR-eGFP in 293T) or endogenous (LNCaP) AR following treatment with DHT.

[8] = Drug concentration in mouse blood and brain (HPLC, fluorescence); format: in vivo, mice (C57 Black 6)
Description: A Halo5 C18 column was used (3.0×50 mm, 5 μm particle size; injection volume: 1 μL) having a mobile phase A: 10% acetonitrile, 90% water, 10 mM NH4HCO3 and a mobile phase B: 80% acetonitrile, 20% water, 10 mM NH4HCO3, with a flow rate: 0.7 mL/min.
The dosing solutions were given to mice (C57 Black 6) by oral gavage at 8 μL per gram of body weight (rounded to the nearest 10 μL), corresponding to 30 mg/kg. After 3 h, the animals were euthanized, and then blood and brain samples were collected and stored at 4° C. until analysis.
Blood samples (clotted) were centrifuged at 9,000 RPM for 2 min×2. Aliquots of the serum (30 μL) were placed in 150 μL micro-centrifuge tubes and acetonitrile (30 μL) were added. The mixture was vortexed briefly and allowed to stand at room temperature for 30 min. Full brains were weighed into 2 mL micro-centrifuge tubes and equal amount of acetonitrile (w/v) was added. […] The samples were centrifuged at 9000 RPM for 2 min×2. The supernatants were transferred to HPLC sample vials with conical inserts, and then analyzed by HPLC.
All compounds were dosed orally to mice, and after 3 hours, the animals were euthanized and blood and brain samples were collected. Drug levels were analyzed by HPLC equipped with a fluorescence detector as described herein.

[9] = system: chromatin binding of AR to enhancers near KLK3 and FKBP5; assay: ChIP-PCR of AR binding sites; format: cell-based
[10] = system: LNCaP cells; assay: Cell viability / proliferation assay (Prestoblue), LNCaP; format: cell-based, human; conditions: 0.1 nM R1881
Description: as §1

[11] = biological target: androgen binding site (ABS) of recombinant wild type LBD (Rattus norvegicus, UniProt P15207)
[12] = Water solubility for dosing formulation; format: physicochemical; conditions: required concentration 3.75 mg/mL
Description: 13822 was water soluble and was formulated as plain aqueous solution at 3.75 mg/mL. […] A formulation screen was conducted to use various pharmaceutically acceptable surfactants and additives to develop a low organic solution or metastable heterogeneous suspension suitable for oral dosing.

[13] = Conversion of prodrug to parent drug in tissue homogenate; format: in vitro ADME; conditions: mouse small intestine tissue homogenate
[14] = system: LNCaP xenograft castration-resistant mouse model; assay: Castration-resistant LNCaP xenograft: serum PSA and tumour growth; format: in vivo; conditions: oral treatment, listed as 13789 prodrug
Description: Assessment of Prostate […] Antigen and Tumour Growth for Castration-resistant LNCaP Xenografts: 6-8-Week-old nude mice (Harlan Sprague-Dawley) weighing 25-31 g were subcutaneously inoculated with LNCaP cells ([…] in BD Matrigel, BD Biosciences) at the posterior dorsal site. Tumor volume, body weight, and serum PSA levels were measured weekly. Mice were castrated when serum PSA levels reached 50 ng/ml. […] Calipers were used to measure the three perpendicular axes of each tumor to calculate the tumor volume.

[15] = human, microsomes, read-out: Half-life

Sequence of androgen binding site (ABS) of recombinant wild type LBD (P15207 651-882 limits assumed): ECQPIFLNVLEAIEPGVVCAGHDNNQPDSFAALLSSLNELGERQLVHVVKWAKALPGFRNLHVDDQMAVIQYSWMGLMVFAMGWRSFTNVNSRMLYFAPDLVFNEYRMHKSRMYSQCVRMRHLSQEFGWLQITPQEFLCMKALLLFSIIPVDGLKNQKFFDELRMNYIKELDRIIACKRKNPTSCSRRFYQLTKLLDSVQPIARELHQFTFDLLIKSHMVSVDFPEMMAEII

Compound: CN(C)C(=O)c1cccc2nc(-c3c[nH]c4c(F)c(F)c(F)cc34)ccc12 [Compound 13791]
IC50 ([1]; Homo sapiens, LNCaP): > 10000 nM
IC50 [2]: > 10000 nM

Compound: Fc1cc(Cl)cc2c(-c3ccc4ccccc4n3)c[nH]c12 [Compound 13641]
AR inhibition activity [2]: weaker or even inactive

Compound: Cc1cccc2c(-c3ccc4c(O)cccc4n3)c[nH]c12 [Compound 13620]
IC50-eGFP [2]: inactive

Compound: Cc1ccc2c(-c3ccc4ccccc4n3)c[nH]c2c1F [Compound 13619]
AR inhibition activity [2]: weaker or even inactive

Compound: CNC(=O)c1cccc2nc(-c3c[nH]c4c(F)c(F)c(F)cc34)ccc12 [Compound 13719]
IC50 ([1]; Homo sapiens, LNCaP): 130 nM

Compound: Fc1cc2c(-c3ccc4c(-c5cncs5)cccc4n3)c[nH]c2c(F)c1F [Compound 13793, 5-(2-(5,6,7-Trifluoro-1H-indol-3-yl)quinolin-5-yl)thiazole]
IC50 ([1]; Homo sapiens, LNCaP): 330 nM
half-life [3, 15]: 1.73 h

Compound: OC(c1cccc2nc(-c3c[nH]c4c(F)c(F)c(F)cc34)ccc12)C(F)(F)F (stereo not drawn) [Compound 13804]
IC50 [2]: 32000 nM

Compound: CC(C)NC(=O)c1cccc2nc(-c3c[nH]c4c(F)c(F)c(F)cc34)ccc12 [Compound 13789, N-isopropyl-2-(5,6,7-trifluoro-1H-indol-3-yl)quinoline-5-carboxamide]
effect on growth of PC3 cells [4]: not with AR-independent PC3 cells; also recorded: did not exhibit any inhibitory effect
GSEA normalized enrichment score (canonical AR genes) [5]: −3.33
differentially expressed genes [5]: 1514 genes
downregulated genes [5]: 967
upregulated genes [5]: 547
p53 pathway [5]: upregulation of the p53 pathway
AR protein-protein interactions disrupted (of 112 enriched) [6]: 34
nuclear accumulation of AR [7]: only marginally affected nuclear accumulation
metabolic stability judged from polar peaks in chromatograms ([8]; serum and brain samples): metabolically more stable
IC50 ([1]; Homo sapiens, LNCaP): 80 nM
chromatin binding of AR [9]: significantly reduced the chromatin binding of AR
effect on growth of LNCaP cells [10]: concentration-dependent inhibition of growth; also recorded: significant decrease in the growth
% Disp. @ 1 uM (DHT displacement from the ABS site) ([11]; 1 uM): 4 ± 3.8%
ABS inhibition ([11]; 10 μM): no significant ABS inhibition
DHT displacement from ABS ([11]; various concentrations): Very little displacement
microsome stability [3]: good microsome stability
half-life [3]: 206 (206.26)

Compound: Cc1cccc2c(-c3ccc4ccccc4n3)c[nH]c12 [Compound 13566, 2-(7-Methyl-1H-indol-3-yl)quinoline]
blood concentration level ([8]; compared with 13789): much lower
penetration of the blood-brain-barrier ([8]; mice, 3 hour time point): significantly penetrated the blood-brain-barrier
solubility in water [12]: not soluble in water at the required concentration

Compound: CNC(=O)c1ccc(N2C(=S)N(c3ccc(C#N)c(C(F)(F)F)c3)C(=O)C2(C)C)cc1F [Enzalutamide, reference compound]
GSEA normalized enrichment score (canonical AR genes) [5]: −2.31
differentially expressed genes [5]: 586 genes
downregulated genes [5]: 372
upregulated genes [5]: 214
p53 pathway [5]: not observed

Compound: Cc1cccc2c(-c3ccc4c(F)cccc4n3)c[nH]c12 [Compound 13623]
IC50-eGFP [2]: inactive

Now from value to compound, other results behind:

IC50 ([1]; Homo sapiens, LNCaP): > 10000 nM
IC50 [2]: > 10000 nM
Compound: CC(C)NC(=O)c1c(F)ccc2nc(-c3c[nH]c4c(F)c(F)c(F)cc34)ccc12 [Compound 13802]

IC50 ([1]; Homo sapiens, LNCaP): 750 nM
IC50 [2]: 560 nM
Compound: Fc1cc2c(-c3ccc4c(-c5cncs5)c(F)ccc4n3)c[nH]c2c(F)c1F [Compound 13799]

IC50 ([1]; Homo sapiens, LNCaP): 160 nM
microsome stability [3]: good microsome stability
Compound: O=C(NCC1CC1)c1cccc2nc(-c3c[nH]c4c(F)c(F)c(F)cc34)ccc12 [Compound 13807, N-(Cyclopropylmethyl)-2-(5,6,7-trifluoro-1H-indol-3-yl)quinoline-5-carboxamide]

microsome stability [3]: good microsome stability
Compound: O=C(NCC(F)F)c1cccc2nc(-c3c[nH]c4c(F)c(F)c(F)cc34)ccc12 [Compound 13808, N-(2,2-Difluoroethyl)-2-(5,6,7-trifluoro-1H-indol-3-yl)quinoline-5-carboxamide]

IC50 ([1]; Homo sapiens, LNCaP): 1500 nM
IC50 [2]: 1980 nM
Compound: O=C(NC1CC1)c1c(F)ccc2nc(-c3c[nH]c4c(F)c(F)c(F)cc34)ccc12 [Compound 13797]

IC50 [2]: > 10000 nM
Compound: CN(C)C(=O)c1c(F)ccc2nc(-c3c[nH]c4c(F)c(F)c(F)cc34)ccc12 [Compound 13803]

half-life [13]: ~2 h
solubility in water [12]: water soluble
Compound: CC(C)NC(=O)c1cccc2nc(-c3cn(COP(=O)(O)O)c4c(F)c(F)c(F)cc34)ccc12 [Compound 13822]
tumour volume / growth in xenograft ([14]; up to 5 weeks): reduces tumor volume; also recorded: inhibited tumour growth to levels comparable with enzalutamide treatment
serum PSA production in xenograft [14]: inhibits PSA production; also recorded: reducing serum PSA levels

IC50 ([1]; Homo sapiens, LNCaP): 950 nM
IC50 [2]: 5480 nM
Compound: CNC(=O)c1c(F)ccc2nc(-c3c[nH]c4c(F)c(F)c(F)cc34)ccc12 [Compound 13796]

IC50 [1]: > 10000 nM
Compound: 2-(2-(5,6,7-Trifluoro-1H-indol-3-yl)quinolin-5-yl)thiazole [Compound 13801]

IC50 ([1]; Homo sapiens, LNCaP): 230 nM
microsome stability [3]: good microsome stability
half-life [3, 15]: 4.35 h
Compound: O=C(NC1CC1)c1cccc2nc(-c3c[nH]c4c(F)c(F)c(F)cc34)ccc12 [Compound 13795, N-Cyclopropyl-2-(5,6,7-trifluoro-1H-indol-3-yl)quinoline-5-carboxamide]

IC50 ([1]; Homo sapiens, LNCaP): > 10000 nM
IC50 [2]: > 10000 nM
Compound: Fc1cc2c(-c3ccc4c(-c5cnco5)cccc4n3)c[nH]c2c(F)c1F [Compound 13794]
